Test results published in US10800782B2, “Inhibitors of cellular metabolic processes” (Agios Pharmaceuticals, Inc., priority 2016, dated 2020).

Biological target: T1, MAT2A (Homo sapiens, UniProt P31153)
T1 construct: His6; made in house; host or cells: SF9 insect cells
Assay: MAT2A biochemical assay (colorimetric inorganic phosphate detection, PiColorLock)
Details: recombinant His6-tagged MAT2A 1 μg/ml; 60 minutes preincubation at 25° C.; L-Met 80 μM, ATP 100 μM; 60 minutes reaction; read at 623 nm; read-out: MAT2A Inhibition Score
Summary of the method: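 His6-tagged human MAT2A (SF9-expressed, 1 μg/ml) converting L-Met and ATP to SAM in Tris pH 8.0, 50 mM KCl, 15 mM MgCl2, 300 uM EDTA, 0.005% BSA; 60 min at room temperature. Released phosphate detected colorimetrically with malachite green phosphomolybdate. Ten-point, three-fold compound dilution series.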

T1 sequence (P31153 whole entry): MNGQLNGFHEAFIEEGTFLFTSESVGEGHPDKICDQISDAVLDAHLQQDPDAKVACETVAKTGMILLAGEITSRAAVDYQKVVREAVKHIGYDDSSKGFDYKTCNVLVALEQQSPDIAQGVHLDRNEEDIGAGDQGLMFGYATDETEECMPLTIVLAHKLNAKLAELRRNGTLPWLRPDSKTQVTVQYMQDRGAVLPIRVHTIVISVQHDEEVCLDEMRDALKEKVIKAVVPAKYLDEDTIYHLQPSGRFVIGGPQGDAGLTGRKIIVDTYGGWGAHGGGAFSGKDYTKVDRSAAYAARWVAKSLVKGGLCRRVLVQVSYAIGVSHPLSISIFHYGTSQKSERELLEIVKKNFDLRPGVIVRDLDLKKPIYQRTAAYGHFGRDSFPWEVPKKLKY

Row | SMILES | IC50 [nM]
1 | O=c1c(-c2ccc(O)cc2)c(Nc2nc[nH]n2)[nH]c2c(-c3ccccc3)c(-c3ccccc3)nn12 [Compound 195, 5-((1H-1,2,4-triazol-3-yl)amino)-6-(4-hydroxyphenyl)-2,3-diphenylpyrazolo[1,5-a]pyrimidin-7(4H)-one] | < 100
2 | COc1ccc(-c2c(CO)[nH]c3c(C4=CCCCC4)c(-c4ccccc4)nn3c2=O)cc1 [Compound 229, 3-(cyclohex-1-en-1-yl)-5-(hydroxymethyl)-6-(4-methoxyphenyl)-2-phenylpyrazolo[1,5-a]pyrimidin-7(4H)-one] | < 100
3 | COc1ccc(-c2c(Nc3nccnn3)[nH]c3c(C4=CCCCC4)c(-c4ccccc4)nn3c2=O)cc1 [Compound 161, 5-((1,2,4-triazin-3-yl)amino)-3-(cyclohex-1-en-1-yl)-6-(4-methoxyphenyl)-2-phenylpyrazolo[1,5-a]pyrimidin-7(4H)-one] | < 100
4 | O=C(CO)NCc1[nH]c2c(-c3ccccc3)c(-c3ccccc3)nn2c(=O)c1-c1ccc2ncccc2c1 [Compound 227, 2-hydroxy-N-((7-oxo-2,3-diphenyl-6-(quinolin-6-yl)-4,7-dihydropyrazolo[1,5-a]pyrimidin-5-yl)methyl)acetamide] | < 100
5 | Cc1[nH]c2c(-c3ccccc3)c(-c3ccccc3)nn2c(=O)c1-c1ccc2ncccc2c1 [Compound 204, 5-methyl-2,3-diphenyl-6-(quinolin-6-yl)pyrazolo[1,5-a]pyrimidin-7(4H)-one] | < 100
6 | COc1ccc(-c2c(O)n(C)c3c(-c4ccccc4)c(-c4ccccc4)nn3c2=O)cc1 [Compound 274, 5-hydroxy-6-(4-methoxyphenyl)-4-methyl-2,3-diphenylpyrazolo[1,5-a]pyrimidin-7(4H)-one] | < 100
7 | COc1ccc(-c2c(Nc3ccnc(OC)n3)[nH]c3c(-c4ccccc4)c(-c4ccccc4)nn3c2=O)cc1 [Compound 118, 6-(4-methoxyphenyl)-5-((2-methoxypyrimidin-4-yl)amino)-2,3-diphenylpyrazolo[1,5-a]pyrimidin-7(4H)-one] | < 100
8 | Cc1[nH]c2c(-c3ccccc3)c(-c3ccccc3)nn2c(=O)c1-c1ccc2c(c1)NC(=O)CO2 [Compound 257, 6-(5-methyl-7-oxo-2,3-diphenyl-4,7-dihydropyrazolo[1,5-a]pyrimidin-6-yl)-2H-benzo[b][1,4]oxazin-3 (4H)-one] | < 100
9 | COc1ccc(-c2c(Nc3ccnc(OC)n3)[nH]c3c(C4=CCCCC4)c(-c4ccccc4)nn3c2=O)cc1 [Compound 156, 3-cyclohexenyl-6-(4-methoxyphenyl)-5-(2-methoxypyrimidin-4-ylamino)-2-phenyl-pyrazolo[1,5-a]pyrimidin-7(4H)-one] | < 100
10 | Cc1[nH]c2c(-c3ccccc3)c(-c3ccccc3)nn2c(=O)c1-c1ccc2c(c1)OCCO2 [Compound 211, 6-(2,3-dihydrobenzo[b][1,4]dioxin-6-yl)-5-methyl-2,3-diphenylpyrazolo[1,5-a]pyrimidin-7(4H)-one] | < 100
11 | COc1ccc(-c2c(Nc3cc(N)ncn3)[nH]c3c(-c4ccccc4)c(-c4ccccc4)nn3c2=O)cc1 [Compound 117, 5-((6-aminopyrimidin-4-yl)amino)-6-(4-methoxyphenyl)-2,3-diphenylpyrazolo[1,5-a]pyrimidin-7(4H)-one] | < 100
12 | COc1ccc(-c2c(Nc3ncccc3O)[nH]c3c(-c4ccccc4)c(-c4ccccc4)nn3c2=O)cc1 [Compound 113, 5-(3-hydroxypyridin-2-ylamino)-6-(4-methoxy-phenyl)-2,3-diphenylpyrazolo[1,5-a]pyrimidin-7(4H)-one] | < 100
13 | COc1ccc(-c2c(Nc3ccc(OC)nn3)[nH]c3c(-c4ccccc4)c(-c4ccccc4)nn3c2=O)cc1 [Compound 124, 6-(4-methoxyphenyl)-5-((6-methoxypyridazin-3-yl)amino)-2,3-diphenylpyrazolo[1,5-a]pyrimidin-7(4H)-one] | < 100
14 | Cc1[nH]c2c(N3CCC(F)(F)C3)c(-c3ccccc3)nn2c(=O)c1-c1ccc2nccn2c1 [Compound 317, 3-(3,3-difluoropyrrolidin-1-yl)-6-(imidazo[1,2-a]pyridin-6-yl)-5-methyl-2-phenylpyrazolo[1,5-a]pyrimidin-7(4H)-one] | 100 to 1000
15 | COc1ccc(-c2c(Nc3cccc(C#N)n3)[nH]c3c(-c4ccccc4)c(-c4ccccc4)nn3c2=O)cc1 [Compound 111, 6-((6-(4-methoxyphenyl)-7-oxo-2,3-diphenyl-4,7-dihydropyrazolo[1,5-a]pyrimidin-5-yl)amino)picolinonitrile] | < 100

Next, values leading:

Row | IC50 [nM] | SMILES
16 | < 100 | COc1ccc(-c2c(Nc3nnc(O)s3)[nH]c3c(-c4ccccc4)c(-c4ccccc4)nn3c2=O)cc1 [Compound 146, 5-((5-hydroxy-1,3,4-thiadiazol-2-yl)amino)-6-(4-methoxyphenyl)-2,3-diphenylpyrazolo[1,5-a]pyrimidin-7(4H)-one]
17 | < 100 | Cc1[nH]c2c(-c3ccccc3)c(-c3ccccc3)nn2c(=O)c1-c1ccc2nc(C(=O)O)ccc2c1 [Compound 246, 6-(5-methyl-7-oxo-2,3-diphenyl-4,7-dihydropyrazolo[1,5-a]pyrimidin-6-yl) quinoline-2-carboxylic Acid]
18 | 100 to 1000 | Cc1[nH]c2c(N3CCCCC3)c(-c3ccccc3)nn2c(=O)c1N1CCC(O)CC1 [Compound 311, 6-(4-hydroxypiperidin-1-yl)-5-methyl-2-phenyl-3-(piperidin-1-yl)pyrazolo[1,5-a]pyrimidin-7(4H)-one]
19 | 1000 to 10000 | Cc1[nH]c2c(N3CCCCC3)c(-c3ccccc3)nn2c(=O)c1-c1cscn1 [Compound 310, 5-methyl-2-phenyl-3-(piperidin-1-yl)-6-(thiazol-4-yl)pyrazolo[1,5-a]pyrimidin-7(4H)-one]
20 | < 100 | Nc1[nH]c2c(-c3ccccc3)c(-c3ccccc3)nn2c(=O)c1-c1ccc(O)cc1 [Compound 276, 5-amino-6-(4-hydroxyphenyl)-2,3-diphenylpyrazolo[1,5-a]pyrimidin-7(4H)-one]
21 | 1000 to 10000 | Cc1[nH]c2c(-c3ccccc3)c(-c3cccc(Cl)c3)nn2c(=O)c1-c1ccc2ncccc2c1 [Compound 346, 2-(3-chlorophenyl)-5-methyl-3-phenyl-6-(quinolin-6-yl)pyrazolo[1,5-a]pyrimidin-7(4H)-one]
